Measured values as given in paper PMC7261172, “Peptides containing the PCNA interacting motif APIM bind to the β-clamp and inhibit bacterial growth and mutagenesis” (Nucleic Acids Research, 2020).

Experiments:
E. coli MG1655 [1] = test: Rif^R mutagenicity assay, added cell penetrating peptides; format: cell-based, Escherichia coli; conditions: spontaneous; for Mutation frequency, added peptides: E. coli MG1655, cell penetrating peptide 20 μM, average ± SEM, RWLVK n = 11, RFSLK n = 4, RWLK n = 7, R11 n = 5, control 10.5 ± 2.2
Procedure: (§1) The rifampicin resistance (Rif^R) mutagenicity assay was performed as described in ([50]) with some modifications. Briefly, E. coli BL21 expressing peptide variants were induced with (IPTG) (1 mM) at OD600 = 0.3–0.4 and cultured at 37°C, for 2 h before harvested. Bacteria from large culture volumes (up to 50 ml) were plated in order to obtain ∼100 Rif^R colonies per dish. The anti-mutagenic effect of cell penetrating APIM-peptides in E. coli MG1655 was done by adding 20 μM peptide at OD600 = 0.01, and the cells were cultured for 30 min. Next, the cells were pelleted and washed with PBS before UV-irradiated in (50 μl) PBS (2 mJ UVC/cm^2), re-suspended in 2.5 ml LB and cultured in 37°C for 2 h before plating on LB plates with and without Rif (100 μg/ml). The number of Rif^R colonies/ total CFU was determined after 1 and 2 days, respectively. Significance was calculated by using a two-tailed, paired, students t-test. Gentamicin resistance (Gen^R) was examined using a gentamicin sensitive clinical isolate of S. epidermidis. […] The cultures were grown in a shaking incubator (37°C) and were re-inoculated (1:100) every 24 h in fresh TSB and supplements. The cultures were plated on blood agar plates with and without gentamicin (10 mg/l) every day for 4 days, and the frequency of Gen^R colonies was determined by calculating the number of Gen^R colonies/total CFU.

S.epidermidis (MRSE) = format: cell-based, Staphylococcus epidermidis; conditions: 24 h
Procedure: (§2) Briefly, bacterial suspension in Mueller-Hinton Broth was adjusted to 0.5 McFarland and diluted to 5 × 10^5 CFU/ml. The suspension (0.1 ml) was seeded in polypropylene microtiter plates (Greiner), 5 × 10^4 CFU/well. APIM-peptides were added as 10% of the total volume. Initial inoculums were quantified by seeding on agar for verification of the estimated CFU/mL. After 24 hours (h) incubation at 37°C, the microtiter plates were inspected for visible growth.

[2] = system: clinical isolates of multidrug-resistant S. epidermidis; test: Inhibition of growth (OD600) of clinical isolates; format: cell-based, Staphylococcus epidermidis; conditions: most sensitive clinical isolate (isolate 1); same molar concentration as the full-length RWLVK-peptide; Figure 1B
Procedure: Growth experiments were performed in Luria-Bertani broth (LB) media, Tryptic soy broth (TSB) or LB agar at 37°C, antibiotic selections were performed using the following concentrations: kanamycin 30 μg/ml, chloramphenicol 34 μg/ml and rifampicin 100 μg/ml.

E.coli β-clamp = target: T1, E.coli β-clamp (Escherichia coli, UniProt P0A988); test: Microscale thermophoresis (MST) β-clamp binding; conditions: cell penetrating peptides, MST buffer with 2% fetal bovine serum, initial in vitro binding experiments, bounds given
T1 construct: made in house
T1 sequence (P0A988 whole entry): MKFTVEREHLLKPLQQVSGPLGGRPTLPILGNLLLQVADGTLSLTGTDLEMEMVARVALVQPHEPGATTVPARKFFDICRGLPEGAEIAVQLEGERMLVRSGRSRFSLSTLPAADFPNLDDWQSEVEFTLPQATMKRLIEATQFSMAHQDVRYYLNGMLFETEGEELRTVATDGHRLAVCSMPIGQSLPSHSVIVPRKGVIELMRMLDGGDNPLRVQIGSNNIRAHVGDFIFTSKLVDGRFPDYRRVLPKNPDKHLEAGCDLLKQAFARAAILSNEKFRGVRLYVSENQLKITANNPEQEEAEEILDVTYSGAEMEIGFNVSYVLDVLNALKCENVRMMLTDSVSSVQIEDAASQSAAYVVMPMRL
Procedure: Purified E.coli β-clamp ([49]) was labeled using the RED-Maleimide Labelling Kit (NanoTemper Technologies, GmbH) according to the manufacturer's instructions applying a concentration of 20 μM protein at room temperature. The ligands, cell penetrating APIM-peptides, were dissolved and diluted in supplemented Microscale thermophoresis (MST) buffer (50 mM Tris–HCl pH 7.5, 150 mM NaCl, 10 mM MgCl2) with 2% fetal bovine serum and incubated for 10 min in room temperature. Series of 1:1 dilutions (16×), producing ligand concentrations ranging from 500 μM to 15 nM, were made. Each ligand solution was further diluted 1:1 with fluorescent labeled β-clamp (diluted in MST buffer, 3 nM) and incubated for 10 min. Fluorescence was measured for each protein-ligand sample using a Monolith NT.115 instrument (20% MST power and 100% LED power) and Monolith NT Standard Treated Capillaries (both NanoTemper Technologies, GmbH). To calculate the KD’s, fluorescence signals were plotted and analyzed using the supplemented software (NT Analysis software version 1.5.41 and MO.affinity analysis version 2.2.4, NanoTemper Technologies). Denaturation with SD-buffer (4% sodium dodecyl sulphate and 40 mM DTT) and re-measurement of total fluorescence confirmed that the observed change in fluorescence was due to ligand binding event.

E. coli MG1655 cells = test: Replication assay (flow cytometry of DNA content, Rif/Cpx run-out); format: cell-based, Escherichia coli; conditions: up to 15 μM peptide (above MIC), then Rif and Cpx run-out
Procedure: E. coli MG1655 cells were grown at 37°C in glucose-CAA medium (AB minimal medium ([46]) supplemented with 10 μg/ml thiamine, 0.2% glucose and 0.5% casamino acids) for several generations to ensure balanced growth. At an OD600 = 0.15, the cells were added 2, 4 or 6 μM RWLVK* peptide or 2, 4, 6 or 15 μM R11 peptide. Growth was continued for 2–5 min. After peptide treatment, cells were either harvested directly or treated with rifampicin (Rif) (300 μg/ml) and cephalexin (Cpx) (10 μg/ml) for the time equivalent of three to four generations before harvesting. Both directly harvested and Rif and Cpx treated cells were re-suspended in TE buffer (10 mM Tris–HCl, pH 8.0, 1 mM EDTA, pH 8.0) and fixed in 70% ethanol. Fluorescein isothiocyanate (FITC, Sigma-Aldrich) ([47]) was used for protein staining (representing mass), and Hoechst 33258 was used for DNA staining (Sigma-Aldrich) ([48]). Flow cytometry was performed with an LSR-II flow cytometer equipped with a 488 nm argon-ion laser and a 355 nm krypton laser (BD Biosciences), and the results were analyzed using FlowJo software (Tree Star, Inc.). Rif and Cpx inhibit the initiation of replication and cell division, respectively. Cells cannot initiate a new round of replication after these drugs are added but can complete ongoing rounds of replication (without dividing). […]

E. coli BL21 = format: cell-based, Escherichia coli; conditions: Mueller-Hinton Broth, 5 × 10^5 CFU/ml, 24 h, 37°C; average of ≥3 independent biological experiments
Procedure: as §2

E. coli MG1655 [3] = format: cell-based, Escherichia coli; conditions: Mueller-Hinton Broth, 5 × 10^5 CFU/ml, 24 h, 37°C; average of ≥3 independent biological experiments
Procedure: as §2

[4] = system: gentamicin sensitive clinical isolate of S. epidermidis; test: Gentamicin resistance (Gen^R) mutation frequency assay; format: cell-based, Staphylococcus epidermidis; conditions: peptide 3 μM, 4 days, daily re-inoculation 1:100 in TSB, n≥ 4; Figure 4B
Procedure: as §1

MRSA 43484 = test: Murine skin wound infection model; conditions: topical
Procedure: The experimental procedure is modified from a previously described skin infection model in mice ([52]). A total of 32 Balb/C female mice (18–22 g, Taconic, Denmark) were used for the experiment. The mice were treated orally with analgesia, 45 μl Nurofen®junior (Novartis 20 mg/ml ∼30 mg/kg), 30–60 min before the experiment. The mice were anesthetized with 0.15 ml diluted Zoletil mix (2 ml Zoletil mix + 5.2 ml sterile saline + 2.8 ml Torbugesix 1:100) before the fur was removed on a 2 × 3 cm area of the back with an electric shaver and a razor. At last, a skin lesion was made on each mouse with a dermal curette (Miltex 335710). A total of 10 μl inoculum containing 10^7 CFU MRSA 43484 (in saline) was added to a 1 cm^2 area of the skin lesion of each mouse. One group of animals (six mice) were sacrificed 1 day after inoculation, before any treatment was given, to quantify the inoculum. The remaining mice were given topical treatment twice a day (9 a.m and 3 p.m) for 3 days; APIM-peptide (RFSLK, Innovagen SE, 12.8 mg/ml in 1% methyl cellulose gel containing 10% glycerol) or Fusidic acid 2% ointment (LeoPharma). A volume of 50 μl was used for each treatment, spread out on the skin lesion. […] The treated animals and the control group were sacrificed on day 4, one day after the last treatment. […]

Molecule	Effect of added cell penetrating peptide on the mutation frequency (E. coli MG1655 [1]; E. coli MG1655, 20 μM)	Mutation frequency, added peptides (E. coli MG1655 [1])	Minimal Inhibitory Concentration (MIC) S.epidermidis (MRSE) (S.epidermidis (MRSE)) [µM]	Inhibition of growth (OD600), % of untreated parallel [2]	KD for the β-clamp (MST) (E.coli β-clamp)	Inhibition of DNA replication (E. coli MG1655 cells)	Minimal Inhibitory Concentration (MIC) E. coli BL21 (E. coli BL21) [µM]	Minimal Inhibitory Concentration (MIC) E. coli MG1655 (E. coli MG1655 [3]) [µM]	Mutation frequency (Gen^R/10^8 CFU) compared to the control, peptide alone [4]	Bacterial load in the infected lesions (CFU/skin lesion) on day 4 (MRSA 43484; 50 μl twice a day for 3 days, 12.8 mg/ml (3.5 mM) in 1% methyl cellulose gel with 10% glycerol, compared to controls, Figure 5)	Toxicity of the APIM-peptide gel (MRSA 43484; twice a day for 3 days, mice)	Kd (E.coli β-clamp; read-out: KD for the β-clamp (MST)) [µM]
N=C(N)NCCC[C@H](NC(=O)[C@H](CCCNC(=N)N)NC(=O)[C@H](CCCNC(=N)N)NC(=O)[C@H](CCCNC(=N)N)NC(=O)[C@H](CCCNC(=N)N)NC(=O)[C@H](CCCNC(=N)N)NC(=O)[C@H](CCCNC(=N)N)NC(=O)[C@H](CCCNC(=N)N)NC(=O)[C@H](CCCNC(=N)N)NC(=O)[C@H](CCCNC(=N)N)NC(=O)[C@@H](N)CCCNC(=N)N)C(N)=O [R11, reference compound]	did not affect the mutation frequency	7.2 ± 3.9 Rif^R/10^8 CFU	12	no effect	no binding was detected	did not have any effect	11	14.5	–	–	–	–
Ac-MDRFSLKWKKKRKIRRRRRRRRRRR-NH2 [RFSLK]	–	4.1 ± 1.6 * Rif^R/10^8 CFU	3	–	–	–	4	7.5	did not change the mutation frequency	significantly reduced the bacterial load	no toxicity	< 50
